Assay results from patent US4304864A, “Long-chain acyl-coenzyme-A synthetase” (Mitsubishi Chemical Industries, Limited, priority 1978, dated 1981).
Entries after “also recorded” stand apart in the source; their conditions may differ.

Experiments:
[1] = test system: acyl-CoA synthetase I; test: Specificity for acyl acceptors (Vmax and apparent Km); format: biochemical, Candida lipolytica; conditions: for utilization as acyl acceptor: at conc. up to 5 mM; for Km / Vmax: acyl acceptor; for Vmax: CoA designated as 100%
Method: (§1) The sssay of enzyme activity was carried out by the Banis and Tove method. (See Biochemica et Biophysica Acta, Vol. 348, pages 210-220 (1974)). According to this method, the reaction solution contained 20 μmol of Tris-HCl buffer (pH 7.5), 3 μmol of ATP, 2 μmol of MgCl2, 1.0 μmol of dithiothreitol, 0.2 μmol of [U-^14 C] potassium palmitate (0.2 mCi/mmol), 0.32 μmol of surfactant T, 0.2 μmol of CoA and an aliquot of the enzyme solution in a total volume of 0.2 ml. After a 5 minute preincubation, either the CoA or the enzyme solution which had been kept from incorporating in the reaction solution was added to initiate the reaction (at 25° C.). At the end of a 10 minute reaction period, 2.5 ml of isopropanol-n-heptane-1 M sulfuric acid (40:10:1) was added to stop the reaction. The solution was then extracted with heptane to remove any unreacted free fatty acid. After the aqueous layer was washed twice each with 2 ml of heptane containing 8 mg of palmitic acid, the radioactivity of the aqueous layer was measured.
(§2) The standard reaction solution contained 100 μmol of Tris-HCl buffer (pH 7.4), 5 μmol of dithiothreitol, 1.6 μmol of surfactant T, 7.5 μmol of ATP, 10 μmol of MgCl2, 0.25 μmol of potassium oleate, 1 μmol of CoA, 0.2 μmol of potassium phosphoenolpyruvate, 0.15 μmol of NADH, 20 μg of myokinase, 30 μg of pyruvate kinase, 30 μg of lactate dehydrogenase and a certain amount of acyl-CoA synthetase per ml of the solution. A reaction solution containing all the above components except CoA was preincubated at 25° C. for one minute. The reaction was then initiated by the addition of CoA, and the rate of decrease in optical density at 340 nm which was attributed to decrease in amount of NADH was determined.
The Vmax values and the apparent Km values were as follows: […]

[2] = test system: acyl-CoA synthetase; test: Substrate specificity of acyl-CoA synthetase (fatty acids); format: biochemical, Candida lipolytica; conditions: for Activity (μmol acyl-CoA/min.): fatty acid concentration 0.25 mM
Method: as §1, §2

[3] = test system: acyl-CoA synthetase I; test: Specificity for nucleoside-5'-triphosphate; format: biochemical, Candida lipolytica; conditions: for effectiveness as nucleoside-5'-triphosphate: 7.5 mM and 15 mM
Method: as §2
(ii) Specificity for nucleoside-5'-triphosphate: Only ATP and αATP were effective. At concentrations of 7.5 mM and 15 mM, the activities measured with αATP were 78% and 61%, respectively, of those measured with ATP.

[4] = test system: acyl-CoA synthetase; test: Substrate specificity of acyl-CoA synthetase (fatty acids); format: biochemical, Candida lipolytica; conditions: fatty acid concentration 0.125 mM
[5] = test system: acyl-CoA synthetase; test: Activator and inhibitor of the enzyme; format: biochemical, Candida lipolytica
[6] = most purified form, prior art; cited from earlier work

## O[C@H](CS)[C@H](O)CS (racemic) [Dithiothreitol]
[1]
  utilization as acyl acceptor: Not utilized

## CC(C)(COP(=O)(O)OP(=O)(O)OC[C@H]1O[C@@H](n2cnc3c2ncn2ccnc32)[C@H](O)[C@@H]1OP(=O)(O)O)[C@@H](O)C(=O)NCCC(=O)NCCS [1:^6 N-Etheno-CoA]
[1]
  Km: 500 µM
  Vmax: 40%

## CC(C)(COP(=O)(O)O)[C@@H](O)C(=O)NCCC(=O)NCCS [4'-Phosphopantetheine]
[1]
  Km: 3300 µM
  Vmax: 63%

## O=C(O)CCCCCCCCCCCCCCCO [16-Hydroxypalmitic acid]
[2]
  effectiveness as substrate of the enzyme: essentially ineffective
  Activity (μmol acyl-CoA/min.): 1.5 μmol acyl-CoA/min.

## Nc1ncnc2c1ncn2[C@@H]1O[C@H](COP(=O)(O)OP(=O)(O)OP(=O)(O)O)[C@@H](O)[C@H]1O [ATP]
[3]
  effectiveness as nucleoside-5'-triphosphate: effective

## CCCCCCCCCCCCCCCCCCCC(=O)O [Arachidic acid]
[2]
  Activity (μmol acyl-CoA/min.): 0.6 μmol acyl-CoA/min.

## CCCCC/C=C\C/C=C\C/C=C\C/C=C\CCCC(=O)O [Arachidonic acid]
[4]
  Activity (μmol acyl-CoA/min.): 1.3 μmol acyl-CoA/min.

## Nc1ccn([C@@H]2O[C@H](COP(=O)(O)OP(=O)(O)OP(=O)(O)O)[C@@H](O)[C@H]2O)c(=O)n1 [CTP]
[3]
  effectiveness as nucleoside-5'-triphosphate: essentially ineffective

## CC(C)(COP(=O)(O)OP(=O)(O)OC[C@H]1O[C@@H](n2cnc3c(N)ncnc32)[C@H](O)[C@@H]1OP(=O)(O)O)[C@@H](O)C(=O)NCCC(=O)NCCS [CoA]
[1]
  Km: 42 µM
  Vmax: 100%

## [Cu+2] [Cu^++]
[5]
  activation or inhibition of the enzyme: inhibitor
[5]; concentration of 15 mM
  inhibition of the enzyme action: completely inhibits

## CC(C)(COP(=O)(O)OP(=O)(O)OC[C@H]1O[C@@H](n2cnc3c(N)ncnc32)[C@H](O)[C@@H]1O)[C@@H](O)C(=O)NCCC(=O)NCCS [Dephospho-CoA]
[1]
  Km: 110 µM
  Vmax: 70%

## O=C(O)CN(CCN(CC(=O)O)CC(=O)O)CC(=O)O [EDTA]
[5]
  activation or inhibition of the enzyme: inhibitor; also recorded: inhibits

## Nc1nc2c(ncn2[C@@H]2O[C@H](COP(=O)(O)OP(=O)(O)OP(=O)(O)O)[C@@H](O)[C@H]2O)c(=O)[nH]1 [GTP]
[3]
  effectiveness as nucleoside-5'-triphosphate: essentially ineffective

## N[C@@H](CCC(=O)N[C@@H](CS)C(=O)NCC(=O)O)C(=O)O [Glutathione]
[1]
  utilization as acyl acceptor: Not utilized

## CCCCCCCCCCCCCCCCC(=O)O [Heptadecanoic acid]
[4]
  Activity (μmol acyl-CoA/min.): 22.3 μmol acyl-CoA/min.

## O=C(O)CCCCCCCCCCCCCCC(=O)O [Hexadecanedioic acid]
[2]
  effectiveness as substrate of the enzyme: essentially ineffective
  Activity (μmol acyl-CoA/min.): 0.6 μmol acyl-CoA/min.

## N[C@@H](CS)C(=O)O [L-Cysteine]
[1]
  utilization as acyl acceptor: Not utilized

## CCCCCCCCCCCC(=O)O [Lauric acid]
[2]
  Activity (μmol acyl-CoA/min.): 1.0 μmol acyl-CoA/min.

## CCCCC/C=C\C/C=C\CCCCCCCC(=O)O [Linoleic acid]
[2]
  Activity (μmol acyl-CoA/min.): 19.7 μmol acyl-CoA/min.

## CC/C=C\C/C=C\C/C=C\CCCCCCCC(=O)O [Linolenic acid]
[2]
  Activity (μmol acyl-CoA/min.): 22.0 μmol acyl-CoA/min.

## [Mg+2] [Mg^++]
[5]
  activation or inhibition of the enzyme: activator; also recorded: activated

## CCCCCCCCCCCCCC(=O)O [Myristic acid]
[2]
  Activity (μmol acyl-CoA/min.): 20.8 μmol acyl-CoA/min.

## CC(=O)NCCS [N-Acetylcysteamine]
[1]
  utilization as acyl acceptor: Not utilized

## CCCCCCCCCCCCCCCCCCC(=O)O [Nonadecanoic acid]
[2]
  Activity (μmol acyl-CoA/min.): 1.7 μmol acyl-CoA/min.

## CCCCCCCC/C=C\CCCCCCCC(=O)O [Oleic acid]
[2]
  Activity (μmol acyl-CoA/min.): 23.8 μmol acyl-CoA/min.

## CCCCCCCCCCCCCCCC(=O)O [Palmitic acid]
[2]
  Activity (μmol acyl-CoA/min.): 20.4 μmol acyl-CoA/min.

## CCCCCC/C=C\CCCCCCCC(=O)O [Palmitoleic acid]
[4]
  Activity (μmol acyl-CoA/min.): 19.8 μmol acyl-CoA/min.

## CC(C)(CO)[C@@H](O)C(=O)NCCC(=O)NCCS [Pantetheine]
[1]
  Km: 2500 µM
  Vmax: 57%

## CCCCCCCCCCCCCCC(=O)O [Pentadecanoic acid]
[2]
  Activity (μmol acyl-CoA/min.): 18.0 μmol acyl-CoA/min.

## CCCCCCCCCCCCC(=O)O [Tridecanoic acid]
[4]
  Activity (μmol acyl-CoA/min.): 1.3 μmol acyl-CoA/min.

## O=c1ccn([C@@H]2O[C@H](COP(=O)(O)OP(=O)(O)OP(=O)(O)O)[C@@H](O)[C@H]2O)c(=O)[nH]1 [UTP]
[3]
  effectiveness as nucleoside-5'-triphosphate: essentially ineffective

## Nc1ncnc2c1ncn2[C@@H]1O[C@H](COP(=O)(O)OP(=O)(O)CP(=O)(O)O)[C@@H](O)[C@H]1O [adenylyl (β,γ-methylene)diphosphonate]
[3]
  effectiveness as nucleoside-5'-triphosphate: essentially ineffective

## Nc1ncnc2c1ncn2[C@@H]1O[C@H](COP(=O)(O)OP(=O)(O)NP(=O)(O)O)[C@@H](O)[C@H]1O [adenylyl imidodiphosphonate]
[3]
  effectiveness as nucleoside-5'-triphosphate: essentially ineffective

## αATP
[3]
  effectiveness as nucleoside-5'-triphosphate: effective
[3]; nucleotide 7.5 mM
  activity relative to that measured with ATP: 78%
[3]; nucleotide 15 mM
  activity relative to that measured with ATP: 61%

## αTTP
[3]
  effectiveness as nucleoside-5'-triphosphate: essentially ineffective

B1: acyl-CoA synthetase from E. coli: prior art enzyme purified from Escherichia coli by D. Samuel et al (protein, UniProt P69451 1-561, looked up)
Long-chain-fatty-acid--CoA …: MKKVWLNRYPADVPTEINPDRYQSLVDMFEQSVARYADQPAFVNMGEVMTFRKLEERSRAFAAYLQQGLGLKKGDRVALMMPNLLQYPVALFGILRAGMIVVNVNPLYTPRELEHQLNDSGASAIVIVSNFAHTLEKVVDKTAVQHVILTRMGDQLSTAKGTVVNFVVKYIKRLVPKYHLPDAISFRSALHNGYRMQYVKPELVPEDLAFLQYTGGTTGVAKGAMLTHRNMLANLEQVNATYGPLLHPGKELVVTALPLYHIFALTINCLLFIELGGQNLLITNPRDIPGLVKELAKYPFTAITGVNTLFNALLNNKEFQQLDFSSLHLSAGGGMPVQQVVAERWVKLTGQYLLEGYGLTECAPLVSVNPYDIDYHSGSIGLPVPSTEAKLVDDDDNEVPPGQPGELCVKGPQVMLGYWQRPDATDEIIKNGWLHTGDIAVMDEEGFLRIVDRKKDMILVSGFNVYPNEIEDVVMQHPGVQEVAAVGVPSGSSGEAVKIFVVKKDPSLTEESLVTFCRRQLTGYKVPKLVEFRDELPKSNVGKILRRELRDEARGKVDNKA
[6]
  specific activity: 106 mU/mg protein
